≈ marks a conversion by molar mass, not a printed value.
Legend:
Type in all cases: cell-based
TNF-alpha = TNF-alpha release from EL4 T cells, ELISA; conditions: 24 hours
Experimental: (§1) The ability of naringin-loaded MIL-101(Fe) to promote the release of IL-2 and TNF-alpha from EL4 T cells is evaluated. Enzyme-linked immunosorbent assay (ELISA) is performed according to the manufacturer specifications. Briefly, EL-4 T-cells are incubated in 96-well plates at an initial density of 8000 cells/well. The cell cultures are treated with either MIL-101(Fe), naringin or naringin-loaded MIL-101(Fe) (Example 1(d)) at the following concentrations in PBS: 0, 100, and 200 μg/mL. The plates are incubated for 24 hours at 37° C. in 5% CO2 atmosphere. The solutions are then transferred to a V-shaped 96 well plate and centrifuged at 500 g for 5 minutes. The supernatant solutions are then collected and the recommend ELISA protocol is performed. Absorbance at 450 and 540 nm is measured using a 96-well plate reader, and the results are compared to cytokine standard solutions.

[1] = EL4 T cell viability, ATP viability assay (ATPLite 1-step Luminescence); conditions: mouse, EL4 T cells
Experimental: The ability of naringin-loaded MIL-101(Fe) to promote the viability of EL4 T cells is evaluated using the ATP viability assay (Perkin Elmer, ATPLite 1-step Luminescence Assay). EL4 T cells are seeded at 8000 cells/mL in white 96-well plates and incubated with either naringin or naringin-loaded MIL-101(Fe) (Example 1(d)) at the following concentrations: 3.125, 6.25, 12.5, 25, 50, 100, and 200 μg/mL. The ATP kit solution is then added to each well, and a 96-well microplate reader is used to measure total luminescence. Cell viability is calculated as a percentage of the luminescence of the untreated control.

Bacillus subtilis = test: Antibacterial activity, MIC by micro-dilution method; conditions: TSB, lowest concentration that completely inhibits growth
Experimental: The antibacterial activity of the prepared MOF complexes is determined against Bacillus subtilis, by calculating minimal inhibitory concentration (MIC) using the micro-dilution method. Briefly, test samples are diluted with TSB solution to 2 mg/mL, and then further serial dilutions are prepared in TSB. Bacterial cultures are incubated in TSB for 16 hours, then 100 microliter suspensions are transferred to 4 mL of fresh medium and incubated for another 6 hours in order to reach mid-log phase stage. Then, the bacteria are diluted to provide 10^6 colony-forming units per mL (CFU/mL) based on OD600 measurement. […] The tested products are the naringin-loaded MOF prepared from 0.5 mg/ml naringin in ethanol, 0.5 mg/mL naringin in 1:4 ethanol/water solution, and 1 mg/mL naringin in 1:2.2 ethanol/water solution.

[2] = tested on: H1299 mouse lung tumor cells; test: Tumor cell cytotoxicity, ATP viability assay (ATPLite 1-step Luminescence)
Experimental: The ability of naringin-loaded MIL-101(Fe) to kill H1299 […] lung tumor cells is evaluated using the ATP viability assay (Perkin Elmer, ATPLite 1-step Luminescence Assay). H1299 cells are seeded at 5000 cells/mL in white 96-well plates and incubated with either MIL-101(Fe), naringin or naringin-loaded MIL-101(Fe) (Example 1(d) at the following concentrations: 0, 3.125, 25, 50, 100, and 200 μg/mL. The ATP kit solution is then added to each well, and a 96-well microplate reader is used to measure total luminescence. Cell viability is calculated as a percentage of the luminescence of the untreated control. The results are shown in the following table: […]

IL-2 = IL-2 release from EL4 T cells, ELISA; conditions: 24 hours
Experimental: as §1

[3] = 3.125 µg/mL of agent, % of untreated control

C[C@@H]1O[C@@H](O[C@H]2[C@H](Oc3cc(O)c4c(c3)O[C@H](c3ccc(O)cc3)CC4=O)O[C@H](CO)[C@@H](O)[C@@H]2O)[C@H](O)[C@H](O)[C@H]1O [Naringin]
TNF-alpha concentration (TNF-alpha; 100 µg/mL of agent): 10.64 pg/mL
TNF-alpha concentration (TNF-alpha; 200 µg/mL of agent): 9.92 pg/mL
viability at 3.125 µg/mL [1, 3]: 77%
viability at 6.25 µg/mL ([1]; 6.25 µg/mL of agent): 75.8%
viability at 12.5 µg/mL ([1]; 12.5 µg/mL of agent): 72.1%
viability at 25 µg/mL ([1]; 25 µg/mL of agent): 67%
viability at 50 µg/mL ([1]; 50 µg/mL of agent): 74.9%
viability at 100 µg/mL ([1]; 100 µg/mL of agent): 80.3%
viability at 200 µg/mL ([1]; 200 µg/mL of agent): 84.7%
MIC (Bacillus subtilis): 5000 µg/mL (≈ 8.61 mM)
Cell viability (%) [2, 3]: 85.97%
Cell viability (%) ([2]; 25 µg/mL of agent): 73.26%
Cell viability (%) ([2]; 50 µg/mL of agent): 80.15%
Cell viability (%) ([2]; 100 µg/mL of agent): 87.10%
Cell viability (%) ([2]; 200 µg/mL of agent): 83.23%
IL-2 concentration (IL-2; 100 µg/mL of agent): 15.22 pg/mL
IL-2 concentration (IL-2; 200 µg/mL of agent): 16.49 pg/mL
